Source: US12030878B2 (BRISTOL-MYERS SQUIBB COMPANY, priority 2017, dated 2024)

Tests used:
Assay type in all cases: cell-based
[1] = biological target: T1, human TLR8 (Homo sapiens, UniProt Q9NR97); assay: TLR8 inhibition reporter assay (HEK-Blue SEAP); conditions: HEK-Blue cells overexpressing human TLR8, stimulated with R848 15.9 μM, 22 hour incubation
T1 construct: host or cells: HEK-Blue cells
T1 sequence (Q9NR97 27-1041): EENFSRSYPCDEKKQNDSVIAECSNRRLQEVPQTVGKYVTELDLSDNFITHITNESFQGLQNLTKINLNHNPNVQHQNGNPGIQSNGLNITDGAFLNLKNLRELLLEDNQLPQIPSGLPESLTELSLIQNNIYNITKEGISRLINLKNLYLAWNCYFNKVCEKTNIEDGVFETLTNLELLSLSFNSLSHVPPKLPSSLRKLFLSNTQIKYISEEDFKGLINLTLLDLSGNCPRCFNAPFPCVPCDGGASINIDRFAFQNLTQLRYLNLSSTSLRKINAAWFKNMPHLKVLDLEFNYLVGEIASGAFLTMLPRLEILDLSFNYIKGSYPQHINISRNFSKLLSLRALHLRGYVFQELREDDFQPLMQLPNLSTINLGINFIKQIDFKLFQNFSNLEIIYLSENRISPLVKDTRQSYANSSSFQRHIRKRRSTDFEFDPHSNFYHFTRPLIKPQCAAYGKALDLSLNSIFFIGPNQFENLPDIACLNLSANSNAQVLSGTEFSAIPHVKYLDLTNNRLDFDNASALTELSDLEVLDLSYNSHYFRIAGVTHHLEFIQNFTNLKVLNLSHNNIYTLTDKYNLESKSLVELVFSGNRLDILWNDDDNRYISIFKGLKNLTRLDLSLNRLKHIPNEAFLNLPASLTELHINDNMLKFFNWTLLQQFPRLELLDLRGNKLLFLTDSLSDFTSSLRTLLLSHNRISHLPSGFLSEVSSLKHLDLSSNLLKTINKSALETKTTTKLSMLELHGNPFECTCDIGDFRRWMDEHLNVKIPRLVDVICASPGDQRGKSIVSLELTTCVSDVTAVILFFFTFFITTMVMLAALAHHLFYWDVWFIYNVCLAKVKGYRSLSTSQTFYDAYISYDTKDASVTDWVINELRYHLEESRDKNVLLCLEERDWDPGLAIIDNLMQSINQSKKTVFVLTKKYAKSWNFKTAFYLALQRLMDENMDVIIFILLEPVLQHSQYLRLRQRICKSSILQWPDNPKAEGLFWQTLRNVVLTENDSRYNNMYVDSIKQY
Summary of the method: (§1)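 HEK-Blue cells with NF-κB/AP-1-driven SEAP reporter; compounds 0.05 nM-50 μM, 30 min pre-treatment at room temperature, then agonist: gardiquimod 7.5 μM (TLR7), R848 15.9 μM (TLR8) or ODN2006 5 nM (TLR9). SEAP read after 22 h at 37 °C; percent inhibition versus agonist-plus-DMSO and reference-inhibitor wells.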

[2] = biological target: T2, human TLR7 (Homo sapiens, UniProt Q9NYK1); assay: TLR7 inhibition reporter assay (HEK-Blue SEAP); conditions: HEK-Blue cells overexpressing human TLR7, stimulated with gardiquimod 7.5 μM, 22 hour incubation
T2 construct: host or cells: HEK-Blue cells
T2 sequence (Q9NYK1 27-1049): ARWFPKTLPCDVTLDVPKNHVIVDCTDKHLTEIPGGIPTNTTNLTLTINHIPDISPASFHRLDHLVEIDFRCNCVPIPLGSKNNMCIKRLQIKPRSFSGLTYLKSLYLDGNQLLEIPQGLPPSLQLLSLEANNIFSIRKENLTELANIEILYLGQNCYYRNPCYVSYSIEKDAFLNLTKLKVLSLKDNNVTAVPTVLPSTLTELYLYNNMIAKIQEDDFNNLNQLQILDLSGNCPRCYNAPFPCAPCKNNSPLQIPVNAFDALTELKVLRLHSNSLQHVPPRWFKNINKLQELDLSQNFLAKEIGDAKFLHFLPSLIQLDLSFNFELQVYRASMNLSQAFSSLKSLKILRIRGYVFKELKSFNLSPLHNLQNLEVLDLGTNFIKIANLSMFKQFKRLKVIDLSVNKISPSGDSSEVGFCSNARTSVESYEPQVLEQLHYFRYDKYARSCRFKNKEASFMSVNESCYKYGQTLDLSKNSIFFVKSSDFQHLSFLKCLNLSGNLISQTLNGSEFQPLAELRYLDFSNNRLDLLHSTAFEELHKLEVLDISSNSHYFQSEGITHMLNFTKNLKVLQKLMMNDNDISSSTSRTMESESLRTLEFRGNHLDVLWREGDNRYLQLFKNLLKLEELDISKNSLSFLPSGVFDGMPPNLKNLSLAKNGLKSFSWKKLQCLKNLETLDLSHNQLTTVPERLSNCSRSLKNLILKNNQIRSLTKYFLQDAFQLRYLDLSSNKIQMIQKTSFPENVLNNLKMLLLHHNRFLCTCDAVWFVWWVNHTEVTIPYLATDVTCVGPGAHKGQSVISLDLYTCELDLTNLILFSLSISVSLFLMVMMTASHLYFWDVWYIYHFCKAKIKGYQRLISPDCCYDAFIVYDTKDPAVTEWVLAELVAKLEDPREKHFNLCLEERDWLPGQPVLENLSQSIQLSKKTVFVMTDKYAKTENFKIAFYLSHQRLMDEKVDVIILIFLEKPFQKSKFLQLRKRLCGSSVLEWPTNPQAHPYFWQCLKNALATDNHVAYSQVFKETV
Summary of the method: as §1

[3] = biological target: T3, human TLR9 (Homo sapiens, UniProt Q9NR96); assay: TLR9 inhibition reporter assay (HEK-Blue SEAP); conditions: HEK-Blue cells overexpressing human TLR9, stimulated with ODN2006 5 nM, 22 hour incubation
T3 construct: host or cells: HEK-Blue cells
T3 sequence (Q9NR96 26-1032): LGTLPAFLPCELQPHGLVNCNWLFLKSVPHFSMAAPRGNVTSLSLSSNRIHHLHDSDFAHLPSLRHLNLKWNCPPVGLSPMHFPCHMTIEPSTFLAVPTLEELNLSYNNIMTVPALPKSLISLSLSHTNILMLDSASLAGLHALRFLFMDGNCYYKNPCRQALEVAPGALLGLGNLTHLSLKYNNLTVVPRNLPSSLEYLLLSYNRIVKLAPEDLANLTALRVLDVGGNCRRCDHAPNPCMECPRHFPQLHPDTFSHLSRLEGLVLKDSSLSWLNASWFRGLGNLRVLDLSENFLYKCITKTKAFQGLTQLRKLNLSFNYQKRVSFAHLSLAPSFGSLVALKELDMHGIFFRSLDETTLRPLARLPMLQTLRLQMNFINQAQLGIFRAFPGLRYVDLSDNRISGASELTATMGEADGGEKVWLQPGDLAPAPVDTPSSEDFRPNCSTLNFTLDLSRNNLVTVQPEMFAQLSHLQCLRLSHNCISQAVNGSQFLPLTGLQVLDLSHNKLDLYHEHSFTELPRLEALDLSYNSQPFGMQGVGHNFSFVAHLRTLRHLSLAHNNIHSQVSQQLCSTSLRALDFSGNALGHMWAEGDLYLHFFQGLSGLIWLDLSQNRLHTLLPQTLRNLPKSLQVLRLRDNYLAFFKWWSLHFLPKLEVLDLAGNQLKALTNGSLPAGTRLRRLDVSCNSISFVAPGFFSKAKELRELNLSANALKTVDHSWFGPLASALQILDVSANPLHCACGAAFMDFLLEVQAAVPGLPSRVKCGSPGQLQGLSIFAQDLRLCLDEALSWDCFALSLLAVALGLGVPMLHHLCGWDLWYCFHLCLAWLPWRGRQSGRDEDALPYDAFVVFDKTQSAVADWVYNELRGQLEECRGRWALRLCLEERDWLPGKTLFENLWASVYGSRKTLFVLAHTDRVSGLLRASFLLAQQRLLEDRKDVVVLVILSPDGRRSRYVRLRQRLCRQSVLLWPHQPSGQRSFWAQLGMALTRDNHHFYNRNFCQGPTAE
Summary of the method: as §1

Structure (SMILES)	IC50 [1] [nM]	IC50 [2] [nM]	IC50 [3] [nM]
COCCN1CCC(COc2ccc3[nH]c(-c4cc(C)c(=O)n(C)c4)c(C(C)C)c3c2)CC1 [Example 74, 5-(3-isopropyl-5-((1-(2-methoxyethyl)piperidin-4-yl)methoxy)-1H-indol-2-yl)-1,3-dimethylpyridin-2(1H)-one]	3.9	20.7	29200
Cc1cc(-c2[nH]c3ccc(OC4CCN(CC(C)C)CC4)cc3c2C(C)C)cn(C)c1=O [Example 76, 5-(5-((1-isobutylpiperidin-4-yl)oxy)-3-isopropyl-1H-indol-2-yl)-1,3-dimethylpyridin-2(1H)-one]	0.8	2.8	5570
Cc1cc(-c2[nH]c3ccc(OC4CCN(CC(C)C)CC4)cc3c2C(C)C)cn2ncnc12 [Example 77, 6-(5-((1-isobutylpiperidin-4-yl)oxy)-3-isopropyl-1H-indol-2-yl)-8-methyl-[1,2,4]triazolo[1,5-a]pyridine]	1.4	2.9	2830
Cc1cc(-c2[nH]c3ccc(OCC4CCN(CC(=O)N(C)C)CC4)cc3c2C(C)C)cc(C)n1 [Example 80, 2-(4-(((2-(2,6-dimethylpyridin-4-yl)-3-isopropyl-1H-indol-5-yl)oxy)methyl)piperidin-1-yl)-N,N-dimethylacetamide]	8.5	7.7	398
Cc1cc(-c2[nH]c3ccc(O[C@H]4CCCN(CC(=O)N(C)C)C4)cc3c2C(C)C)cn(C)c1=O [Example 82, (S)-2-(3-((2-(1,5-dimethyl-6-oxo-1,6-dihydropyridin-3-yl)-3-isopropyl-1H-indol-5-yl)oxy)piperidin-1-yl)-N,N-dimethylacetamide]	27.6	17.3	40600
Cc1cc(-c2[nH]c3ccc(OC4CCCN(CC(=O)N(C)C)C4)cc3c2C(C)C)cn(C)c1=O (stereo not drawn) [Example 84, 2-(3-((2-(1,5-dimethyl-6-oxo-1,6-dihydropyridin-3-yl)-3-isopropyl-1H-indol-5-yl)oxy)piperidin-1-yl)-N,N-dimethylacetamide]	2.9	6.5	16900
Cc1cc(-c2[nH]c3ccc(OCC4CCN(CC(=O)N(C)C)CC4)cc3c2C(C)C)cn2ncnc12 [Example 86, 2-(4-(((3-isopropyl-2-(8-methyl-[1,2,4]triazolo[1,5-a]pyridin-6-yl)-1H-indol-5-yl)oxy)methyl)piperidin-1-yl)-N,N-dimethylacetamide]	2.8	0.4	4380

Continued by falling IC50 [1], values first:

IC50 [1] [nM]	IC50 [2] [nM]	IC50 [3] [nM]	Structure (SMILES)
28.2	1.8	5670	Cc1cc(-c2[nH]c3ccc(O[C@H]4CCCN(CC(=O)N(C)C)C4)cc3c2C(C)C)cn2ncnc12 [Example 83, (S)-2-(3-((3-isopropyl-2-(8-methyl-[1,2,4]triazolo[1,5-a]pyridin-6-yl)-1H-indol-5-yl)oxy)piperidin-1-yl)-N,N-dimethylacetamide]
9.7	26.1	24900	Cc1cc(-c2[nH]c3ccc(OCC4CCN(CC(=O)N(C)C)CC4)cc3c2C(C)C)cn(C)c1=O [Example 81, 2-(4-(((2-(1,5-dimethyl-6-oxo-1,6-dihydropyridin-3-yl)-3-isopropyl-1H-indol-5-yl)oxy)methyl)piperidin-1-yl)-N,N-dimethylacetamide]
5.8	33.2	19600	Cc1c(-c2[nH]c3ccc(OC4CCN(CC(=O)N(C)C)CC4)cc3c2C(C)C)cn(C)c(=O)c1C [Example 87, 2-(4-((3-isopropyl-2-(1,4,5-trimethyl-6-oxo-1,6-dihydropyridin-3-yl)-1H-indol-5-yl)oxy)piperidin-1-yl)-N,N-dimethylacetamide]
3.2	8	447	Cc1cc(-c2[nH]c3ccc(OC4CCN(CC(=O)N(C)C)CC4)cc3c2C(C)C)cc(C)n1 [Example 79, 2-(4-((2-(2,6-dimethylpyridin-4-yl)-3-isopropyl-1H-indol-5-yl)oxy)piperidin-1-yl)-N,N-dimethylacetamide]
2.9	2.1	1350	Cc1cc(-c2[nH]c3ccc(OC4CCN(CC(=O)N(C)C)CC4)cc3c2C(C)C)cn2ncnc12 [Example 85, 2-(4-((3-isopropyl-2-(8-methyl-[1,2,4]triazolo[1,5-a]pyridin-6-yl)-1H-indol-5-yl)oxy)piperidin-1-yl)-N,N-dimethylacetamide]
1.5	10.5	663	COCCN1CCC(Oc2ccc3[nH]c(-c4cc(C)nc(C)c4)c(C(C)C)c3c2)CC1 [Example 75, 2-(2,6-dimethylpyridin-4-yl)-3-isopropyl-5-((1-(2-methoxyethyl)piperidin-4-yl)oxy)-1H-indole]
1.1	10.9	6310	Cc1cc(-c2[nH]c3ccc(OC4CCN(CCCC(F)(F)F)CC4)cc3c2C(C)C)cn(C)c1=O [Example 78, 5-(3-isopropyl-5-((1-(4,4,4-trifluorobutyl)piperidin-4-yl)oxy)-1H-indol-2-yl)-1,3-dimethylpyridin-2(1H)-one]
